These results are taken from patent US11813252B2, “Treatment for Parkinson's disease” (SUN PHARMA ADVANCED RESEARCH COMPANY LTD., priority 2016, dated 2023).

The AUC(0-inf) is the area under the concentration-time curve extrapolated to infinity. High values mean more exposure, low ones less exposure. Usually Cmax stands for the maximum level reached in the sampled fluid or tissue. One may read the inhibition as the change of the read-out against control, counted positive when it falls. A word on the IC50: it is the midpoint of a concentration-inhibition curve.

Data set [1] has as its system neurodegeneration induced by MPTP (TH-positive neurons). Kind of data set: MPTP animal model of Parkinson's disease, TH immunohistochemistry. Type of data set: in vivo, C57BL/6 mice. The note with it: oral, 10 or 30 mg/kg once a day, 6 days before, on the day of and 7 days after MPTP; substantia nigra pars compacta.
A short description of data set [2]: Brain/plasma pharmacokinetic study in mice. Type of data set: in vivo, C57BL6 mice. As for the experimental part:
At 1, 4 & 8 hour time points post treatment, mice were anesthetized with isoflurane and a 0.4 mL of blood was withdrawn from retro-orbital plexus into eppendorf tubes containing 8 μL sodium heparin as an anticoagulant (100 IU/ml) and transferred to ice containers. Blood samples were centrifuged immediately for 7 min at 8500 rpm, 4° C. Plasma was separated in the pre-labeled eppendorf tubes and stored at −70° C. till further analysis. Immediately thereafter, the mice were sacrificed, whole brain was removed and rinsed with ice-cold phosphate buffered saline (PBS) to remove extraneous blood and blot-dried. Brain tissue samples were weighed and homogenized in 1:2 volume of PBS using a tissue homogenizer and stored in labeled vials at −70° C. until further analysis. Concentrations of the compound of Formula I.a in brain and plasma were determined using the LC-MS technique.

The nature of data set [3]: QT, QTc intervals and heart rate in conscious telemetered beagle dogs. The note with it: for Emesis: beagle dogs. The data set is classed as in vivo. Here is the method: Compound of Formula I.a was administered via peroral (p.o.) route at three dose levels: 5, 15, and 30 mg/kg in conscious telemetered male and female beagle dogs.
(§1) Measurements of ECG parameters (QT interval, QTcb interval, QTcf interval) and heart rate were carried out and recorded over a period of 2 hour prior to drug administration (baseline), and continuously up to 24 hour post-administration. Each animal received both vehicle (placebo) and three different doses of the compound of Formula I.a on different days in a Latin square design, with a washout period of a minimum of 96 hr. On a separate day, one additional oral dosing of compound of Formula I.a was performed to assess plasma concentrations of the compound of Formula I.a at different time points, to derive pharmacokinetic (PK) parameters.
Data of ECG parameters (QT interval, QTcb interval, QTcf interval,) and heart rate were statistically compared as follows: Data of the placebo group at 0.5, 1, 1.5, 2, 3, 4, 5, 6, 8, 12, and 24 hour time points were compared with baseline data of the same group. Data of different groups treated with the compound of Formula I.a were compared with the corresponding data of the placebo group.

The nature of data set [4]: Plasma pharmacokinetics in beagle dogs. To be noted: dog, oral. The data set is classed as in vivo. Here is the method: as §1
The target in a further data set is T1, hERG K+ channel (Homo sapiens, UniProt Q12809).
T1 construct: expressed in transfected cells
Kind of data set: hERG K+ channel patch clamp in HEK293 cells. The data set is classed as cell-based. The note with it: for Inhibition of hERG current (in words): at the concentration tested. As for the experimental part:
The in vitro effect of the compounds of Formula I.a and I.b on ionic currents in voltage-clamped human embryonic kidney cells (HEK293) that stably express the human ether-à-go-go-related gene (hERG) was examined. Two concentrations of the compounds of Formula I.a and I.b (1 and 10 μM) were tested at near physiological temperature.
Cells were transferred to the recording chamber and superfused with vehicle control solution (HEPES-buffered physiological saline solution+1% dimethylsulfoxide+1% Bovine serum albumin). Micropipette solution for whole cell patch clamp recordings was composed of: potassium aspartate, 130 mM; MgCl2, 5 mM; EGTA, 5 mM; ATP, 4 mM; HEPES, 10 mM; pH adjusted to 7.2 with 10N KOH. Micropipette solution was prepared in batches, aliquoted, stored frozen and a fresh aliquot thawed each day. The recording was performed at a temperature of 33 to 35° C. using a combination of in-line solution pre-heater, chamber heater and feedback temperature controller. Temperature was measured using a thermistor probe in the recording chamber. Micropipettes for patch clamp recording were made from glass capillary tubing using a P-97 micropipette puller (Sutter Instruments, Novato, Calif.). A commercial patch clamp amplifier was used for whole cell recordings. Before digitization, current records were low-pass filtered at one-fifth of the sampling frequency.
Cells stably expressing hERG were held at −80 mV. Onset and steady state inhibition of hERG potassium current due to the test compounds (Formula I.a and I.b) were measured using a pulse pattern with fixed amplitudes (conditioning prepulse +20 mV for 1 s; repolarizing test ramp to −80 mV (−0.5 V/s) repeated at 5 s intervals). […] was subtracted off-line digitally from the data to determine the potency of the test compounds for hERG inhibition.
(In general: Block of hERG is tested as a sign of cardiac risk.)

A further data set deals with Abl (human) (Homo sapiens, UniProt P00519). Kind of data set: Abl kinase inhibition. The data set is classed as biochemical. To be noted: read-out: Comparative potencies of tyrosine kinase inhibitors in c-Abl IC50. Here is the method:
[specific activity approx. 500 cpm/pmol, concentration as required). The reaction is initiated by the addition of the MgATP mix. After incubation for 40 minutes at room temperature, the reaction is stopped by the addition of 5 μL of a 3% phosphoric acid solution. 10 μL of the reaction is then spotted onto a P30 filtermat and washed three times for 5 minutes in 75 mM phosphoric acid and once in methanol prior to drying and scintillation counting.

A short description of data set [5]: QT, QTc intervals and heart rate in anesthetized guinea pig. Type of data set: in vivo, Dunkin-Hartley guinea pigs. To be noted: 1 mg/kg intravenous infusion over 10 min. Here is the method:
Male Dunkin-Hartley guinea pigs of body weight range 300-400 g were anaesthetized by intraperitoneal injection of urethane (1.5 g/kg). A tracheotomy was performed and animal was allowed to breath spontaneously throughout the experiment. The left jugular vein was catheterized using polyethylene catheter filled with heparinized saline solution (100 IU/mL) for drug administration. Electrodes were placed in lead II position and baseline ECG was recorded.
For different animals, according to body weight, doses of the compound of Formula I.b were weighed and prepared in 0.5 mL of DMSO and administered via a slow intravenous infusion administered over a period of 10 min. ECGs were recorded during and after completion of infusion up to 0.5 hr. QT and RR intervals were measured, using PowerLab 4SP® software. The data were analyzed at 1, 5, and 10 min during infusion and 5, 10, 15 and 30 min after infusion taking mean of 9 beats.

Where [6] appears, read: human, HEK293 cells stably expressing hERG, 33 to 35° C., n=3, read-out: Mean percent inhibition of hERG current.

Molecules are shown by their SMILES.

T1 sequence (Q12809 whole entry): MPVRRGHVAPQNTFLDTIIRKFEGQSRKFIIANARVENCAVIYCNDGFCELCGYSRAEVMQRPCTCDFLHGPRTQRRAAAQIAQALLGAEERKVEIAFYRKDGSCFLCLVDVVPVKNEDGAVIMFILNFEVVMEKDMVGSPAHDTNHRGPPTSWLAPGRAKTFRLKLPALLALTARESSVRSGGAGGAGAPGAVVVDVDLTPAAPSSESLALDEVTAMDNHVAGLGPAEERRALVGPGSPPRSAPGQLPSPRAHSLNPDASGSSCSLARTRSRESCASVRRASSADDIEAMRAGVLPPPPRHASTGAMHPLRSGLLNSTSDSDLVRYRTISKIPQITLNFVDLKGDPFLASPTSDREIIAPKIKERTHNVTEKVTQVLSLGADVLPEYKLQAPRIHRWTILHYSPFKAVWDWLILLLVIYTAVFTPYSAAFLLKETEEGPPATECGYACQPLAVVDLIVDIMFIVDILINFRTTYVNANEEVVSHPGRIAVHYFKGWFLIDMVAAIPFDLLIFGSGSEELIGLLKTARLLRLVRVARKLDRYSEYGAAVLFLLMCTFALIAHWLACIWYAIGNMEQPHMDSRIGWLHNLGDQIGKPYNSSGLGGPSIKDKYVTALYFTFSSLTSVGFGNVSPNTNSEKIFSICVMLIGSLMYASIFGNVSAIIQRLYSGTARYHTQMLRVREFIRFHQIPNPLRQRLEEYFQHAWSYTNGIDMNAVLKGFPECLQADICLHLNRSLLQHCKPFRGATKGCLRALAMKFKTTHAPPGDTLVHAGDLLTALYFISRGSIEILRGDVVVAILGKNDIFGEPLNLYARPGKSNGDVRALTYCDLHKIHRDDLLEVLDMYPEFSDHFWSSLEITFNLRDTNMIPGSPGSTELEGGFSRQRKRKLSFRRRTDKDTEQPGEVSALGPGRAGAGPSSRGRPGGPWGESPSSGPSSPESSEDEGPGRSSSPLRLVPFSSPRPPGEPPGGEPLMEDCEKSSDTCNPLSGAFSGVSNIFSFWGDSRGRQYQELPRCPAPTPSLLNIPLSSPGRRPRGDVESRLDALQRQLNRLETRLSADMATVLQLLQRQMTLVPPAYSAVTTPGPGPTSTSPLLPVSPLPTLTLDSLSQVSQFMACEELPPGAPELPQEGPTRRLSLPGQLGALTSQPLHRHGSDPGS
Sequence of Abl (human) (P00519 whole entry): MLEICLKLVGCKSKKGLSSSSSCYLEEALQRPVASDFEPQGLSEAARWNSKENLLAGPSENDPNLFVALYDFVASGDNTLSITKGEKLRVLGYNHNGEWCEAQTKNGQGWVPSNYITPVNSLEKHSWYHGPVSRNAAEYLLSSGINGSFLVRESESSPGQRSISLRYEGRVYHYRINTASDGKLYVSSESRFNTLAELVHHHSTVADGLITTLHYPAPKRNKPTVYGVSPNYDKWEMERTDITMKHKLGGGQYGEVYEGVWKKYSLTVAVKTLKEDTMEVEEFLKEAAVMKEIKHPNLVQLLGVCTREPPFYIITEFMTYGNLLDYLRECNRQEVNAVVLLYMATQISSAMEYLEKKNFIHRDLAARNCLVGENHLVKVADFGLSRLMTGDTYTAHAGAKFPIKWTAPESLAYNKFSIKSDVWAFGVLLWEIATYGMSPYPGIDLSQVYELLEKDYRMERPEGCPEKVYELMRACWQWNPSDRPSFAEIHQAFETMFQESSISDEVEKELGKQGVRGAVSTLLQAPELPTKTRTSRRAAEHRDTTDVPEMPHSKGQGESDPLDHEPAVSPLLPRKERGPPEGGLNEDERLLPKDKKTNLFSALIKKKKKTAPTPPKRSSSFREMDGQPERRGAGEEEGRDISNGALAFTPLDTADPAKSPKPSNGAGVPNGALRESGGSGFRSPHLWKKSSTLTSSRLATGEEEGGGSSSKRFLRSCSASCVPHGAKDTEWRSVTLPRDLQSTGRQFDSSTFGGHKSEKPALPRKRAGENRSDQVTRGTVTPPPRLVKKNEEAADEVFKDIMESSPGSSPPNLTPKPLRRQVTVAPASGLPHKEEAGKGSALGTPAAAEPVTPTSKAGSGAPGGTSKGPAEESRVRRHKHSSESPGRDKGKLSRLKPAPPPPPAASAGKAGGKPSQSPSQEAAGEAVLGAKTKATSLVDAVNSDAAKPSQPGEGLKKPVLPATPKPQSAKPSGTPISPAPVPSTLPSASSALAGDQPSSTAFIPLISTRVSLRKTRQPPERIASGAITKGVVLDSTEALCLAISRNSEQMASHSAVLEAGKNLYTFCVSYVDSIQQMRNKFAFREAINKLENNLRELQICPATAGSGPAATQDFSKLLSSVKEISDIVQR

As to `Cc1ccc(C(=O)NNC(=O)c2c(C)cccc2Cl)cc1C#Cc1cnc2ccccc2c1` [Compound I.a, N′-(2-Chloro-6-methylbenzoyl)-4-methyl-3-[2-(3-quinolyl)ethynyl]-benzohydrazide], the “Prevention of neurodegeneration induced by MPTP (TH-positive neurons, percentage area, integrated density)” value in data set [1] is listed as “significantly prevented the neurodegeneration induced by MPTP”. Further, the “Brain to plasma ratio as compared to nilotinib or dasatinib” value in data set [2] (oral 30 mg/kg) is listed as “significantly higher”. The Emesis entry in data set [3] (p.o., 30 mg/kg, at 14 min following dosing) is recorded as “Emesis occurred in two animals”; in data set [3] (p.o., 5 and 15 mg/kg), “No emesis was observed”. Besides, the “Change in ECG morphology” value in data set [3] (conscious beagle dogs, any dose level) is given as “no change in ECG morphology”. The Heart rate result in data set [3] (conscious beagle dogs, p.o., 5 and 15 mg/kg) was “remained unchanged”. The “Effect on QT, QTcb, QTcf durations compared with placebo” value in data set [3] (conscious beagle dogs, p.o., 5 and 15 mg/kg, up to 24 hour) is recorded as “no effects”. In addition, in data set [3] (conscious beagle dogs, single oral administration up to 15 mg/kg), the “Effect on cardiovascular functions” value is recorded as “no effect on cardiovascular functions”. The results for the AUC(0-inf) in data set [4] (5 mg/kg), in data set [4] (15 mg/kg) and in data set [4] (30 mg/kg) were 1920 to 4820 ng·h/mL, 6780 to 12800 ng·h/mL and 25900 to 46700 ng·h/mL, respectively. The Cmax in data set [4] (5 mg/kg) was in the range of 1220 to 2030 ng/mL; in data set [4] (15 mg/kg) it was 2720 to 5320 ng/mL; in data set [4] (30 mg/kg), 9820 to 9970 ng/mL. The “Inhibition of hERG current (in words)” value on hERG K+ channel is on record as “did not show any significant inhibition of hERG current”. Also, the inhibition at 1 µM on hERG K+ channel (setting [6]) turned out to be 2.1 ± 0.4%. For the same molecule, the inhibition at 10 µM at hERG K+ channel (human, HEK293 cells stably expressing hERG, 10 μM, 33 to 35° C., n=3, read-out: Mean percent inhibition of hERG current) amounted to 9.7 ± 0.4%.
`Cc1ccc(C(=O)NNC(=O)c2c(C)cccc2Cl)cc1C#Cc1ccc(NC(=O)C2CC2)nc1` [Compound I.b, Cyclopropanecarboxylic acid (5-{5-[N′-(2-chloro-6-methylbenzoyl)hydrazinecarbonyl]-2-methyl-phenylethynyl}-pyridin-2-yl)amide]: the “Prevention of neurodegeneration induced by MPTP (TH-positive neurons, percentage area, integrated density)” value in data set [1] is “significantly prevented the neurodegeneration induced by MPTP”. In addition, the IC50 at Abl (human) turned out to be 600 pM. Besides, the “Change in QT intervals” value in data set [5] is recorded as “no change in QT intervals”. For the same molecule, the “Inhibition of hERG current (in words)” value at hERG K+ channel is “did not show any significant inhibition of hERG current”. Also, the inhibition at 0.3 µM on hERG K+ channel (human, HEK293 cells stably expressing hERG, 0.3 μM, 33 to 35° C., n=3, read-out: Mean percent inhibition of hERG current) was 5.6%. For the same molecule, on hERG K+ channel (setting [6]), the inhibition at 1 µM came to 12.9%. The inhibition at 3 µM on hERG K+ channel (human, HEK293 cells stably expressing hERG, 3 μM, 33 to 35° C., n=3, read-out: Mean percent inhibition of hERG current) amounted to 25%.
For `Cc1nc(Nc2ncc(C(=O)Nc3c(C)cccc3Cl)s2)cc(N2CCN(CCO)CC2)n1` [Dasatinib, dasatinib, reference compound], in data set [2] (oral, I.a 30 mg/kg, nilotinib 100 mg/kg, dasatinib 30 mg/kg, 8 hr), the Plasma conc. entry is “BQL”.
